Laboratory results as given in patent publication US20230167073A1 (Teijin Pharma Limited, priority 2020, published 2023).
pIC50: −log10 of the molar value.

What follows are compounds tested against T1, Human TRPC6 (Homo sapiens, UniProt Q9Y210) (assay: Evaluation of TRPC6 channel inhibitory activity (1), FLIPR Calcium 5 Assay Kit, OAG stimulation (Compound Nos. 1-1293)). Details: not given.
T1 construct: expressed in transfected cells
T1 sequence (Q9Y210 1-931): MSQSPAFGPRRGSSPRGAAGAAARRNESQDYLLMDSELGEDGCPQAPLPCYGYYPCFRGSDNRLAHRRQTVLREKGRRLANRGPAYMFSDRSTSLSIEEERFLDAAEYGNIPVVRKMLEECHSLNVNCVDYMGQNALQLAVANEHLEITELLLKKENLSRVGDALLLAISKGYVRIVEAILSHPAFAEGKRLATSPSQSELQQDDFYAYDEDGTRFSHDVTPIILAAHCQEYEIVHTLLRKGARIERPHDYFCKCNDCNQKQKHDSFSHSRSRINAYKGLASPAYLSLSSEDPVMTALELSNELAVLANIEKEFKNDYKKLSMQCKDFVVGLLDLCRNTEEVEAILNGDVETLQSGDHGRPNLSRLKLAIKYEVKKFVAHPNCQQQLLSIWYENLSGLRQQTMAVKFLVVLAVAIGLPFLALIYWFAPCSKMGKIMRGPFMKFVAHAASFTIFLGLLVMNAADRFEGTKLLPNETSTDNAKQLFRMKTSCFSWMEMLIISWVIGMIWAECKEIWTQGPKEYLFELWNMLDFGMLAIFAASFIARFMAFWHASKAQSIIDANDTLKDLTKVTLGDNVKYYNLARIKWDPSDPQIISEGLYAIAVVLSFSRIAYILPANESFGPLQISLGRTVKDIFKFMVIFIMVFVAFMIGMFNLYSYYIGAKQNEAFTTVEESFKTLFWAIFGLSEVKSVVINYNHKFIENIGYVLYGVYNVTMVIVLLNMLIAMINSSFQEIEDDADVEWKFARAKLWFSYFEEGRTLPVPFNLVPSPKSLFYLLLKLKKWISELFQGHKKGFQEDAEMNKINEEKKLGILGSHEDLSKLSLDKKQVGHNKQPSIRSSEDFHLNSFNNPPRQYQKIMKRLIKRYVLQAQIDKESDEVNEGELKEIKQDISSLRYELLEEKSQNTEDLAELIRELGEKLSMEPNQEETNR
Format: cell-based
How it was run: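 Calcium influx read by FLIPR fluorescence in cells stably expressing human TRPC6, dye-loaded 30 min. Compounds preincubated 20 min, then OAG stimulation at 30 μM final. Inhibition fitted by four-parameter logistic regression to give pIC50, reported as +/++/+++ categories.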

| SMILES | pIC50 |
| --- | --- |
| Cn1nc(N2C3CCC2COC3)cc1Oc1cc(C#N)ccc1-c1ncc(CN)cn1 [compound 944, 4-[5-(aminomethyl)pyrimidin-2-yl]-3-[2-methyl-5-(3-oxa-8-azabicyclo[3.2.1]octan-8-yl)pyrazol-3-yl]oxybenzonitrile] | 6.00 to 8.00 |

Same assay, conditions: Human TRPC6 stably-expressing cells, OAG 30 μM, FLIPR Calcium 5 Assay Kit; read-out: Inhibitory activity (pIC50 class) (converted)

| IC50 [nM] | SMILES |
| --- | --- |
| 10 to 1000 | Cc1nn(CC(F)F)cc1Oc1cc(C#N)ccc1-c1ncc(CCN)cn1 [compound 924, 4-[5-(2-aminoethyl)pyrimidin-2-yl]-3-[1-(2,2-difluoroethyl)-3-methylpyrazol-4-yl]oxybenzonitrile] |
| > 1000 | Cc1c(Oc2cc(C#N)ccc2-c2ncc(CCN)cn2)cnn1CC(F)F [compound 925, 4-[5-(2-aminoethyl)pyrimidin-2-yl]-3-[1-(2,2-difluoroethyl)-5-methylpyrazol-4-yl]oxybenzonitrile] |
| > 1000 | C#CCOc1cc(Oc2cc(C#N)ccc2-c2ncc(CCN)cn2)nc(C)n1 [compound 926, 4-[5-(2-aminoethyl)pyrimidin-2-yl]-3-(2-methyl-6-prop-2-ynoxypyrimidin-4-yl)oxybenzonitrile] |
| 10 to 1000 | N#Cc1ccc(-c2ncc(CCN)cn2)c(Oc2cnn(CC(F)F)c2)c1 [compound 927, 4-[5-(2-aminoethyl)pyrimidin-2-yl]-3-[1-(2,2-difluoroethyl)pyrazol-4-yl]oxybenzonitrile] |
| 10 to 1000 | Cn1nc(-c2cncc(F)c2)cc1Oc1cc(C#N)ccc1-c1ncc(CN)cn1 [compound 928, 4-[5-(aminomethyl)pyrimidin-2-yl]-3-[5-(5-fluoropyridin-3-yl)-2-methylpyrazol-3-yl]oxybenzonitrile] |
| > 1000 | Cn1nc(Br)cc1Oc1cc(C#N)ccc1-c1ncc(CN)cn1 [compound 929, 4-[5-(aminomethyl)pyrimidin-2-yl]-3-(5-bromo-2-methylpyrazol-3-yl)oxybenzonitrile] |
| 10 to 1000 | Cn1nc(-c2cncnc2)cc1Oc1cc(C#N)ccc1-c1ncc(CN)cn1 [compound 930, 4-[5-(aminomethyl)pyrimidin-2-yl]-3-(2-methyl-5-pyrimidin-5-ylpyrazol-3-yl)oxybenzonitrile] |
| < 10 | Cn1nc(-c2ccncn2)cc1Oc1cc(C#N)ccc1-c1ncc(CN)cn1 [compound 932, 4-[5-(aminomethyl)pyrimidin-2-yl]-3-(2-methyl-5-pyrimidin-4-ylpyrazol-3-yl)oxybenzonitrile] |
| > 1000 | Cc1nc(-c2cc(Oc3cc(C#N)ccc3-c3ncc(CN)cn3)n(C)n2)cn1C [compound 933, 4-[5-(aminomethyl)pyrimidin-2-yl]-3-[5-(1,2-dimethylimidazol-4-yl)-2-methylpyrazol-3-yl]oxybenzonitrile] |
| 10 to 1000 | Cn1nc(-c2cccnn2)cc1Oc1cc(C#N)ccc1-c1ncc(CN)cn1 [compound 934, 4-[5-(aminomethyl)pyrimidin-2-yl]-3-(2-methyl-5-pyridazin-3-ylpyrazol-3-yl)oxybenzonitrile] |
| < 10 | Cn1nc(-c2cncs2)cc1Oc1cc(C#N)ccc1-c1ncc(CN)cn1 [compound 935, 4-[5-(aminomethyl)pyrimidin-2-yl]-3-[2-methyl-5-(1,3-thiazol-5-yl)pyrazol-3-yl]oxybenzonitrile] |
| 10 to 1000 | Cn1ccnc1-c1cc(Oc2cc(C#N)ccc2-c2ncc(CN)cn2)n(C)n1 [compound 936, 4-[5-(aminomethyl)pyrimidin-2-yl]-3-[2-methyl-5-(1-methylimidazol-2-yl)pyrazol-3-yl]oxybenzonitrile] |
| < 10 | Cc1nn(CC(C)(C)C)cc1Oc1cc(C#N)ccc1-c1ncc(CCN)cn1 [compound 937, 4-[5-(2-aminoethyl)pyrimidin-2-yl]-3-[1-(2,2-dimethylpropyl)-3-methylpyrazol-4-yl]oxybenzonitrile] |
| 10 to 1000 | Cc1c(Oc2cc(C#N)ccc2-c2ncc(CCN)cn2)cnn1CC(C)(C)C [compound 938, 4-[5-(2-aminoethyl)pyrimidin-2-yl]-3-[1-(2,2-dimethylpropyl)-5-methylpyrazol-4-yl]oxybenzonitrile] |
| 10 to 1000 | Cc1nn(CC(C)C)c(C)c1Oc1cc(C#N)ccc1-c1ncc(CCN)cn1 [compound 939, 4-[5-(2-aminoethyl)pyrimidin-2-yl]-3-[3,5-dimethyl-1-(2-methylpropyl)pyrazol-4-yl]oxybenzonitrile] |
| > 1000 | Cc1nn(CC(F)F)c(C)c1Oc1cc(C#N)ccc1-c1ncc(CCN)cn1 [compound 940, 4-[5-(2-aminoethyl)pyrimidin-2-yl]-3-[1-(2,2-difluoroethyl)-3,5-dimethylpyrazol-4-yl]oxybenzonitrile] |

| IC50 [nM] | SMILES |
| --- | --- |
| > 1000 | Cc1nn(-c2ccccn2)c(C)c1Oc1cc(C#N)ccc1-c1ncc(CCN)cn1 [compound 941, 4-[5-(2-aminoethyl)pyrimidin-2-yl]-3-(3,5-dimethyl-1-pyridin-2-ylpyrazol-4-yl)oxybenzonitrile] |
| > 1000 | Cc1nn(C(C)C)c(C)c1Oc1cc(C#N)ccc1-c1ncc(CCN)cn1 [compound 942, 4-[5-(2-aminoethyl)pyrimidin-2-yl]-3-(3,5-dimethyl-1-propan-2-ylpyrazol-4-yl)oxybenzonitrile] |
| > 1000 | Cc1nn(CC(F)(F)F)c(C)c1Oc1cc(C#N)ccc1-c1ncc(CCN)cn1 [compound 943, 4-[5-(2-aminoethyl)pyrimidin-2-yl]-3-[3,5-dimethyl-1-(2,2,2-trifluoroethyl)pyrazol-4-yl]oxybenzonitrile] |
| < 10 | Cn1nc(-c2ccnn2C)cc1Oc1cc(C#N)ccc1-c1ncc(CN)cn1 [compound 945, 4-[5-(aminomethyl)pyrimidin-2-yl]-3-[2-methyl-5-(2-methylpyrazol-3-yl)pyrazol-3-yl]oxybenzonitrile] |
| 10 to 1000 | Cn1ccc(-c2cc(Oc3cc(C#N)ccc3-c3ncc(CN)cn3)n(C)n2)n1 [compound 946, 4-[5-(aminomethyl)pyrimidin-2-yl]-3-[2-methyl-5-(1-methylpyrazol-3-yl)pyrazol-3-yl]oxybenzonitrile] |
| > 1000 | Cn1cc(-c2cc(Oc3cc(C#N)ccc3-c3ncc(CN)cn3)n(C)n2)cn1 [compound 947, 4-[5-(aminomethyl)pyrimidin-2-yl]-3-[2-methyl-5-(1-methylpyrazol-4-yl)pyrazol-3-yl]oxybenzonitrile] |
| < 10 | Cn1nc(-c2ccncn2)cc1Oc1cc(C#N)ccc1-c1ncc(CCN)cn1 [compound 949, 4-[5-(2-aminoethyl)pyrimidin-2-yl]-3-(2-methyl-5-pyrimidin-4-ylpyrazol-3-yl)oxybenzonitrile] |
| < 10 | Cn1nc(-c2cnccn2)cc1Oc1cc(C#N)ccc1-c1ncc(CCN)cn1 [compound 950, 4-[5-(2-aminoethyl)pyrimidin-2-yl]-3-(2-methyl-5-pyrazin-2-ylpyrazol-3-yl)oxybenzonitrile] |
| < 10 | Cn1nc(-c2cncs2)cc1Oc1cc(C#N)ccc1-c1ncc(CCN)cn1 [compound 951, 4-[5-(2-aminoethyl)pyrimidin-2-yl]-3-[2-methyl-5-(1,3-thiazol-5-yl)pyrazol-3-yl]oxybenzonitrile] |
| < 10 | Cn1nc(-c2cscn2)cc1Oc1cc(C#N)ccc1-c1ncc(CCN)cn1 [compound 952, 4-[5-(2-aminoethyl)pyrimidin-2-yl]-3-[2-methyl-5-(1,3-thiazol-4-yl)pyrazol-3-yl]oxybenzonitrile] |
| < 10 | CCc1nn(CC(C)C)cc1Oc1cc(C#N)ccc1-c1ncc(CCN)cn1 [compound 953, 4-[5-(2-aminoethyl)pyrimidin-2-yl]-3-[3-ethyl-1-(2-methylpropyl)pyrazol-4-yl]oxybenzonitrile] |
| 10 to 1000 | CCc1c(Oc2cc(C#N)ccc2-c2ncc(CCN)cn2)cnn1CC(C)C [compound 954, 4-[5-(2-aminoethyl)pyrimidin-2-yl]-3-[5-ethyl-1-(2-methylpropyl)pyrazol-4-yl]oxybenzonitrile] |
| < 10 | CC(C)Cn1cc(Oc2cc(C#N)ccc2-c2ncc(CCN)cn2)c(C(F)(F)F)n1 [compound 955, 4-[5-(2-aminoethyl)pyrimidin-2-yl]-3-[1-(2-methylpropyl)-3-(trifluoromethyl)pyrazol-4-yl]oxybenzonitrile] |
| 10 to 1000 | CN(C)C(=O)c1cc(Oc2cc(C#N)ccc2-c2ncc(CN)cn2)n(C)n1 [compound 956, 5-[2-[5-(aminomethyl)pyrimidin-2-yl]-5-cyanophenoxy]-N,N,1-trimethylpyrazole-3-carboxamide] |
| < 10 | Cc1nc(-c2cc(Oc3cc(C#N)ccc3-c3ncc(CN)cn3)n(C)n2)cs1 [compound 957, 4-[5-(aminomethyl)pyrimidin-2-yl]-3-[2-methyl-5-(2-methyl-1,3-thiazol-4-yl)pyrazol-3-yl]oxybenzonitrile] |
